Source: ChEMBL document CHEMBL3797052 (Eur J Med Chem, 2016)

Tests used:
[1] = Antiproliferative activity against human BT549 cells assessed as cell growth at 10^-6 M after 48 hrs by sulforhodamine B assay; type: functional; conditions: BT-549, 48 h, read-out: Activity
[2] = Antiproliferative activity against human COLO205 cells assessed as cell growth at 10^-8 M after 48 hrs by sulforhodamine B assay; type: functional; conditions: COLO 205, 48 h, read-out: Activity
M14 = test: Antiproliferative activity against human M14 cells assessed as cell growth at 10^-4 M after 48 hrs by sulforhodamine B assay; type: functional; conditions: M14, 48 h, read-out: Activity
[3] = Antiproliferative activity against human UACC62 cells assessed as cell growth at 10^-7 M after 48 hrs by sulforhodamine B assay; type: functional; conditions: UACC-62, 48 h, read-out: Activity
[4] = Antiproliferative activity against human LOXIMVI cells assessed as growth inhibition after 48 hrs by sulforhodamine B assay; type: functional; conditions: LOX IMVI; for CC50: read-out: LC50 (the source's name)
Malme-3M = test: Antiproliferative activity against human MALME-3M cells assessed as growth inhibition after 48 hrs by sulforhodamine B assay; type: functional; conditions: for CC50: read-out: LC50 (the source's name)
[5] = Antiproliferative activity against human MOLT4 cells assessed as growth inhibition after 48 hrs by sulforhodamine B assay; type: functional; conditions: MOLT-4, 48 h
[6] = Antiproliferative activity against human HCT15 cells assessed as cell growth at 10^-4 M after 48 hrs by sulforhodamine B assay; type: functional; conditions: HCT-15, 48 h, read-out: Activity
[7] = target: RAF proto-oncogene serine/threonine-protein kinase (Homo sapiens, UniProt P04049); test: Inhibition of human CRAF at 10 uM measured after 40 mins by scintillation counting
[8] = Antiproliferative activity against human Hs 578T cells assessed as cell growth at 10^-6 M after 48 hrs by sulforhodamine B assay; type: functional; conditions: read-out: Activity
[9] = Antiproliferative activity against human PC3 cells assessed as cell growth at 10^-8 M after 48 hrs by sulforhodamine B assay; type: functional; conditions: PC-3, 48 h, read-out: Activity
[10] = Antiproliferative activity against human UO31 cells assessed as cell growth at 10^-6 M after 48 hrs by sulforhodamine B assay; type: functional; conditions: UO-31, 48 h, read-out: Activity
SK-MEL-28 = test: Antiproliferative activity against human SK-MEL-28 cells assessed as cell growth at 10^-6 M after 48 hrs by sulforhodamine B assay; type: functional; conditions: SK-MEL-28, 48 h, read-out: Activity
[11] = Antiproliferative activity against human HOP62 cells assessed as cell growth at 10^-8 M after 48 hrs by sulforhodamine B assay; type: functional; conditions: HOP-62, 48 h, read-out: Activity
NCI-H460 = test: Antiproliferative activity against human NCI-H460 cells assessed as cell growth at 10^-8 M after 48 hrs by sulforhodamine B assay; type: functional; conditions: NCI-H460, 48 h, read-out: Activity
K562 [12] = test: Antiproliferative activity against human K562 cells assessed as cell growth at 10^-8 M after 48 hrs by sulforhodamine B assay; type: functional; conditions: K562, 48 h, read-out: Activity
[13] = Antiproliferative activity against human IGROV1 cells assessed as cell growth at 10^-8 M after 48 hrs by sulforhodamine B assay; type: functional; conditions: IGROV-1, 48 h, read-out: Activity
U-251 [14] = test: Antiproliferative activity against human U251 cells assessed as cell growth at 10^-7 M after 48 hrs by sulforhodamine B assay; type: functional; conditions: U-251, 48 h, read-out: Activity
KM12 = test: Antiproliferative activity against human KM12 cells assessed as cell growth at 10^-4 M after 48 hrs by sulforhodamine B assay; type: functional; conditions: KM12, 48 h, read-out: Activity
[15] = Antiproliferative activity against human UACC257 cells assessed as cell growth at 10^-6 M after 48 hrs by sulforhodamine B assay; type: functional; conditions: UACC-257, 48 h, read-out: Activity
[16] = Antiproliferative activity against human SF295 cells assessed as cell growth at 10^-4 M after 48 hrs by sulforhodamine B assay; type: functional; conditions: SF-295, 48 h, read-out: Activity
[17] = Antiproliferative activity against human SKOV3 cells assessed as cell growth at 10^-8 M after 48 hrs by sulforhodamine B assay; type: functional; conditions: SK-OV-3, 48 h, read-out: Activity
[18] = Antiproliferative activity against human HCT116 cells assessed as cell growth at 10^-8 M after 48 hrs by sulforhodamine B assay; type: functional; conditions: HCT-116, 48 h, read-out: Activity
CCRF-CEM = test: Antiproliferative activity against human CCRF-CEM cells assessed as cell growth at 10^-7 M after 48 hrs by sulforhodamine B assay; type: functional; conditions: read-out: Activity
[19] = Antiproliferative activity against human IGROV1 cells assessed as cell growth at 10^-6 M after 48 hrs by sulforhodamine B assay; type: functional; conditions: IGROV-1, 48 h, read-out: Activity
NCI-H23 [20] = test: Antiproliferative activity against human NCI-H23 cells assessed as cell growth at 10^-4 M after 48 hrs by sulforhodamine B assay; type: functional; conditions: NCI-H23, 48 h, read-out: Activity
[21] = Antiproliferative activity against human HOP62 cells assessed as growth inhibition after 48 hrs by sulforhodamine B assay; type: functional; conditions: HOP-62, 48 h
[22] = Antiproliferative activity against human HL-60(TB) cells assessed as cell growth at 10^-8 M after 48 hrs by sulforhodamine B assay; type: functional; conditions: HL-60, 48 h, read-out: Activity
NCI-H522 = test: Antiproliferative activity against human NCI-H522 cells assessed as cell growth at 10^-8 M after 48 hrs by sulforhodamine B assay; type: functional; conditions: NCI-H522, 48 h, read-out: Activity
786-0 = test: Antiproliferative activity against human 786-0 cells assessed as cell growth at 10^-8 M after 48 hrs by sulforhodamine B assay; type: functional; conditions: 786-0, 48 h, read-out: Activity
K562 [23] = test: Antiproliferative activity against human K562 cells assessed as cell growth at 10^-6 M after 48 hrs by sulforhodamine B assay; type: functional; conditions: K562, 48 h, read-out: Activity
A498 = test: Antiproliferative activity against human A498 cells assessed as cell growth at 10^-6 M after 48 hrs by sulforhodamine B assay; type: functional; conditions: A498, 48 h, read-out: Activity
EKVX = test: Antiproliferative activity against human EKVX cells assessed as growth inhibition after 48 hrs by sulforhodamine B assay; type: functional; conditions: for CC50: read-out: LC50 (the source's name)
U-251 [24] = test: Antiproliferative activity against human U251 cells assessed as cell growth at 10^-6 M after 48 hrs by sulforhodamine B assay; type: functional; conditions: U-251, 48 h, read-out: Activity
NCI-H23 [25] = test: Antiproliferative activity against human NCI-H23 cells assessed as cell growth at 10^-8 M after 48 hrs by sulforhodamine B assay; type: functional; conditions: NCI-H23, 48 h, read-out: Activity
[26] = Antiproliferative activity against human OVCAR5 cells assessed as cell growth at 10^-4 M after 48 hrs by sulforhodamine B assay; type: functional; conditions: OVCAR-5, 48 h, read-out: Activity

RAF proto-oncogene serine/threonine-protein kinase, sequence (P04049 whole entry): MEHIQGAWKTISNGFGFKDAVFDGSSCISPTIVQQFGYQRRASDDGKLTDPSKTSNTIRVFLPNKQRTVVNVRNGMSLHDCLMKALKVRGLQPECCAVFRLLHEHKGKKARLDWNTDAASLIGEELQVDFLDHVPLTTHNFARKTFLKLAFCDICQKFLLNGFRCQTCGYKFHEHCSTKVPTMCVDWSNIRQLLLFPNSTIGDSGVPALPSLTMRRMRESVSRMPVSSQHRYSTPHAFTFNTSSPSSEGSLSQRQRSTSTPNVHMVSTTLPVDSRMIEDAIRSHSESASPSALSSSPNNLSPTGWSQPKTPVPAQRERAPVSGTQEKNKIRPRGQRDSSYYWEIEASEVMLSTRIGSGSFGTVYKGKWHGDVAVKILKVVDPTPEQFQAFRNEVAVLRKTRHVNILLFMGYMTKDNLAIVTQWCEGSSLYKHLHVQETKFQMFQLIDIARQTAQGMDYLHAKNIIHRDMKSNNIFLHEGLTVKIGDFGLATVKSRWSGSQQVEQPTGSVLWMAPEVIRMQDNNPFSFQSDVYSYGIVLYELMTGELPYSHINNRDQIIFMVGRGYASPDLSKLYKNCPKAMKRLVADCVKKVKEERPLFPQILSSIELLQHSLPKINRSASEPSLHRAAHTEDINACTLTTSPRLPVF

CNC(=O)c1cc(Oc2ccc3nc(NC(=O)Nc4ccc(Cl)c(Cl)c4)sc3c2)ccn1
growth at 1 µM [1]: 102%
growth at 0.01 µM [2]: 102%
growth at 100 µM (M14): -46%
growth at 0.1 µM [3]: 95%
GI50 [4]: 1.82 µM
TGI [4]: 3.52 µM
CC50 [4]: 6.82 µM
GI50 (Malme-3M): 1.51 µM
TGI (Malme-3M): 3.3 µM
CC50 (Malme-3M): 7.21 µM
GI50 [5]: > 100 µM
LC50 [5]: > 100 µM
TGI [5]: > 100 µM
growth at 100 µM [6]: 26%
inhibition [7]: 98.6%
growth at 1 µM [8]: 108%
growth at 0.01 µM [9]: 96%
growth at 1 µM [10]: 106%
growth at 1 µM (SK-MEL-28): 88%
growth at 0.01 µM [11]: 105%
growth at 0.01 µM (NCI-H460): 104%
growth at 0.01 µM (K562 [12]): 99%
growth at 0.01 µM [13]: 99%
growth at 0.1 µM (U-251 [14]): 99%
growth at 100 µM (KM12): 6%
growth at 1 µM [15]: 89%
growth at 100 µM [16]: -74%
growth at 0.01 µM [17]: 110%
growth at 0.01 µM [18]: 94%
growth at 0.1 µM (CCRF-CEM): 107%
growth at 1 µM [19]: 98%
growth at 100 µM (NCI-H23 [20]): 6%
GI50 [21]: 2.24 µM
LC50 [21]: 7.15 µM
TGI [21]: 4 µM
growth at 0.01 µM [22]: 102%
growth at 0.01 µM (NCI-H522): 98%
growth at 0.01 µM (786-0): 95%
growth at 1 µM (K562 [23]): 98%
growth at 1 µM (A498): 115%
GI50 (EKVX): 3.3 µM
TGI (EKVX): > 100 µM
CC50 (EKVX): > 100 µM
growth at 1 µM (U-251 [24]): 98%
growth at 0.01 µM (NCI-H23 [25]): 95%

CNC(=O)c1cc(Oc2ccc3nc(NC(=O)Nc4ccc(Cl)c(C(F)(F)F)c4)sc3c2)ccn1
growth at 1 µM [1]: 87%
growth at 0.01 µM [2]: 98%
growth at 100 µM (M14): 15%
growth at 0.1 µM [3]: 91%
GI50 [4]: 2.68 µM
TGI [4]: > 100 µM
CC50 [4]: > 100 µM
GI50 (Malme-3M): 1.61 µM
TGI (Malme-3M): 3.63 µM
LC50 [5]: > 100 µM
TGI [5]: > 100 µM
growth at 100 µM [6]: 23%
inhibition [7]: 94.8%
growth at 1 µM [8]: 65%
growth at 0.01 µM [9]: 92%
growth at 1 µM [10]: 108%
growth at 1 µM (SK-MEL-28): 78%
growth at 0.01 µM [11]: 92%
growth at 0.01 µM (NCI-H460): 106%
growth at 0.01 µM (K562 [12]): 107%
growth at 0.01 µM [13]: 102%
growth at 0.1 µM (U-251 [14]): 101%
growth at 100 µM (KM12): 45%
growth at 1 µM [15]: 90%
growth at 100 µM [16]: -82%
growth at 0.01 µM [17]: 97%
growth at 0.01 µM [18]: 101%
growth at 0.1 µM (CCRF-CEM): 99%
growth at 1 µM [19]: 88%
growth at 100 µM (NCI-H23 [20]): -40%
GI50 [21]: 1.94 µM
LC50 [21]: > 100 µM
TGI [21]: 4.74 µM
growth at 0.01 µM [22]: 101%
growth at 0.01 µM (NCI-H522): 98%
growth at 0.01 µM (786-0): 97%
growth at 1 µM (K562 [23]): 96%
growth at 1 µM (A498): 80%
GI50 (EKVX): 1.75 µM
TGI (EKVX): 4.18 µM
growth at 1 µM (U-251 [24]): 89%
growth at 100 µM [26]: -24%
growth at 0.01 µM (NCI-H23 [25]): 100%

CNC(=O)c1cc(Oc2ccc3nc(NC(=O)Nc4cc(C(F)(F)F)cc(C(F)(F)F)c4)sc3c2)ccn1
growth at 1 µM [1]: 67%
growth at 0.01 µM [2]: 90%
growth at 100 µM (M14): -73%
growth at 0.1 µM [3]: 93%
GI50 [4]: 1.21 µM
TGI [4]: 2.53 µM
CC50 [4]: 5.29 µM
GI50 (Malme-3M): 0.908 µM
TGI (Malme-3M): 2.49 µM
CC50 (Malme-3M): 6.41 µM
growth at 100 µM [6]: -67%
inhibition [7]: 77%
growth at 1 µM [8]: 73%
growth at 0.01 µM [9]: 101%
growth at 1 µM [10]: 65%
growth at 1 µM (SK-MEL-28): 66%
growth at 0.01 µM [11]: 85%
growth at 0.01 µM (NCI-H460): 102%
growth at 0.01 µM (K562 [12]): 104%
growth at 0.01 µM [13]: 103%
growth at 0.1 µM (U-251 [14]): 106%
growth at 100 µM (KM12): -61%
growth at 1 µM [15]: 59%
growth at 100 µM [16]: -71%
growth at 0.01 µM [17]: 87%
growth at 0.01 µM [18]: 102%
growth at 0.1 µM (CCRF-CEM): 114%
growth at 1 µM [19]: 62%
growth at 100 µM (NCI-H23 [20]): -52%
GI50 [21]: 1.15 µM
LC50 [21]: 6.79 µM
TGI [21]: 2.8 µM
growth at 0.01 µM [22]: 110%
growth at 0.01 µM (NCI-H522): 95%
growth at 0.01 µM (786-0): 92%
growth at 1 µM (K562 [23]): 44%
growth at 1 µM (A498): 51%
GI50 (EKVX): 1.29 µM
TGI (EKVX): 4.56 µM
CC50 (EKVX): 59.3 µM
growth at 1 µM (U-251 [24]): 51%
growth at 100 µM [26]: -74%
growth at 0.01 µM (NCI-H23 [25]): 93%
